What was measured:
[1] = molecular target: T1, human A3-adenosine receptor (Homo sapiens, UniProt P0DMS8); test: A3 receptor binding, determined in analogy to Salvatore et al. (Table 21); conditions: Rezeptorbindungswerte, Tabelle 21, read-out: KiA3
T1 sequence (P0DMS8 1-318): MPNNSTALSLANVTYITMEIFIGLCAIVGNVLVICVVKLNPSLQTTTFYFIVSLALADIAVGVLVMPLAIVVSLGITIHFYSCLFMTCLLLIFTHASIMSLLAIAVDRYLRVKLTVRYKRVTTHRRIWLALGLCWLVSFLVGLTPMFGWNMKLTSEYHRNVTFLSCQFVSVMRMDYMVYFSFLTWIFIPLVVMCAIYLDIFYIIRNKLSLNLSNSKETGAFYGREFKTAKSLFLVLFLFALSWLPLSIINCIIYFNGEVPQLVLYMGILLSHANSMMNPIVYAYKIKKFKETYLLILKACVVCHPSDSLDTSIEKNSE
Description: Die in Tabelle 21 zusammengefassten A3-Rezeptorbindungswerte wurden in Analogie zu Salvatore et al. "Molecular cloning and characterization of the human A3-adenosine receptor" (Proc. Natl. Acad. Sci. USA 90, 10365-10369, 1993) ermittelt.
Die nachfolgende Tabelle enthält KiA3 (human) Rezeptorbindungswerte. Tabelle 21

[2] = molecular target: T2, human A1 adenosine Receptor (Homo sapiens, UniProt P30542); test: A1 receptor binding, determined in analogy to Ensinger et al. (Table 20); conditions: Rezeptorbindungswerte, Tabelle 20, read-out: KiA1
T2 sequence (P30542 1-326): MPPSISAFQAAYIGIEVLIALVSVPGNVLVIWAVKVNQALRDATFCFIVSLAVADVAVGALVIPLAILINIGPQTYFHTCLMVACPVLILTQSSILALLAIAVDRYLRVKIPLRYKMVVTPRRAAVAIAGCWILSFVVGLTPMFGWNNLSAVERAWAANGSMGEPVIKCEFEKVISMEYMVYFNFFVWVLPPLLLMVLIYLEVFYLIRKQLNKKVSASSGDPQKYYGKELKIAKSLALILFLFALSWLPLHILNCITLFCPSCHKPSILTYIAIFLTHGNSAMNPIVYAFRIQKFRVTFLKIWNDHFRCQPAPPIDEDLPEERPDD
Description: Die ermittelten A1-Rezeptorbindungswerte wurden in Analogie zu Ensinger et al. in "Cloning and functional characterisation of human A1 adenosine Receptor - Biochemical and Biophysical Communications, Vol 187, No. 2, 919-926, 1992" bestimmt und sind in Tabelle 20 zusammengefaßt.
(§1) Die nachfolgende Tabelle enthält KiA1 (human) und KiA2 (Ratte) Rezeptorbindungswerte. Tabelle 20

[3] = molecular target: A2-Rezeptor (Rattus norvegicus, UniProt P30543); test: A2 receptor binding (Table 20); conditions: Ratte; Rezeptorbindungswerte, Tabelle 20; read-out: KiA2
Chain of A2-Rezeptor (P30543 whole entry): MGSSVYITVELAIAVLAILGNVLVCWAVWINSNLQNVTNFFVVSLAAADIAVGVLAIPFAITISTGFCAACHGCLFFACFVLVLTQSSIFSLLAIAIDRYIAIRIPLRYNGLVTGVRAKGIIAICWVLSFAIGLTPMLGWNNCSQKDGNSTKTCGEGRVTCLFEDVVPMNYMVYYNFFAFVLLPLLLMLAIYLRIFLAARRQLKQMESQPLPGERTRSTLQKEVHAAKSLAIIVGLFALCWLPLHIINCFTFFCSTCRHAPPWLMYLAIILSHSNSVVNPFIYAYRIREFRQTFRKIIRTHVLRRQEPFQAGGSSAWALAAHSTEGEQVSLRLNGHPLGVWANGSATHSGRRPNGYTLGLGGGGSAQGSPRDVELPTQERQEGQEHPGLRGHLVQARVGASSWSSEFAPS
Description: as §1

SMILES | Ki [1] | Ki [2] | Ki [3]
CCCCn1c2nc[nH]c2c(=O)n2nc(Cc3ccccc3)nc12 [Beispiel 4] | 2.3 nM | – | –
O=c1c2[nH]c(C3CCCC3)nc2n(Cc2ccccc2)c2nc(Cc3ccccc3)nn12 [Beispiel 12] | 20 nM | – | –
CCCn1c2nc(C3CCCC3)[nH]c2c(=O)n2nc(C(C)C)nc12 [Beispiel 37] | – | 6.4 nM | 307 nM
CCCn1c2nc(N3CCOCC3)[nH]c2c(=O)n2nc(Cc3ccccc3)nc12 [Beispiel 13] | – | 5.2 nM | 82 nM
CCCCCn1c2nc(C3CCCC3)[nH]c2c(=O)n2nc(Cc3ccccc3)nc12 [Beispiel 25] | 26 nM | 10.3 nM | 1230 nM
O=c1c2[nH]cnc2[nH]c2nc(C3CCCC3)nn12 [Beispiel 19] | 3.8 nM | – | –
CCc1nc2c([nH]1)c(=O)n1nc(CCc3ccccc3)nc1n2CC [compound 78] | 5.3 nM | – | –
CCn1c2nc(C(C)(C)C)[nH]c2c(=O)n2nc(Cc3ccccc3)nc12 [compound 68] | 30 nM | – | –
CCn1c2nc(C3CCCC3)[nH]c2c(=O)n2ncnc12 [Beispiel 30] | – | 81.5 nM | 3290 nM
CCCn1c2nc(C3CCCC3)[nH]c2c(=O)n2nc(C(C)(C)C)nc12 [Beispiel 39] | – | 6 nM | 539 nM
CCCn1c2nc[nH]c2c(=O)n2nc(Cc3ccccc3)nc12 [Beispiel 3] | 4.7 nM | – | –
CCCn1c2nc(N(C)C)[nH]c2c(=O)n2nc(Cc3ccccc3)nc12 [compound 65] | 3 nM | – | –
CCn1c2nc(C3CCCC3)[nH]c2c(=O)n2nc(Cc3ccccc3)nc12 [Beispiel 9] | – | 1.4 nM | 422 nM
CCc1nc2c([nH]1)c(=O)n1nc(COc3ccc(OC)cc3)nc1n2CC [compound 82] | 25 nM | – | –
CCCc1nc2c([nH]1)c(=O)n1nc(Cc3ccccc3)nc1n2CCC [Beispiel 7] | – | 8.1 nM | 158 nM
Cn1c2nc(C3CCCC3)[nH]c2c(=O)n2nc(Cc3ccccc3)nc12 [Beispiel 8] | – | 1.9 nM | 363 nM
CCCc1nc2n(CCC)c3nc(C4CCCC4)[nH]c3c(=O)n2n1 [Beispiel 36] | – | 5.8 nM | 731 nM
CCCn1c2nc(CC)[nH]c2c(=O)n2nc(C3CCCC3)nc12 [Beispiel 23] | 2 nM | – | –
CCCCn1c2nc(C3CCCC3)[nH]c2c(=O)n2nc(Cc3ccccc3)nc12 [Beispiel 11] | – | 8.3 nM | 345 nM
CCCn1c2nc(CC)[nH]c2c(=O)n2nc(Cc3ccccc3)nc12 [Beispiel 6] | 2 nM | – | –
CCCCc1nc2n(CCC)c3nc(C4CCCC4)[nH]c3c(=O)n2n1 [Beispiel 38] | 22 nM | 6.4 nM | 532 nM
CCCn1c2nc(C3CCCC3)[nH]c2c(=O)n2nc(-c3ccco3)nc12 [Beispiel 48] | – | 11.4 nM | 4460 nM
CCCn1c2nc(C3CCCC3)[nH]c2c(=O)n2nc(Cc3ccccc3)nc12 [Beispiel 10] | – | 1.7 nM | 730 nM

From patent EP0978517A2, “Triazolopurines, process for their preparation and their use as medicaments” (Boehringer Ingelheim Pharma KG, priority 1996, dated 1998)
